Drawing on US4713371A, “Anthracycline derivatives and their use as cytostatics” (Hoechst Aktiengesellschaft, priority 1983, dated 1987), this text covers IC50 for 13 compounds.

In brackets after ≈: the same amount, converted by molar mass. Where two headings read alike, the source gives them in different places.

The subject of assay [1] is L1210 mouse leukemia cells. The experiment in a line: Proliferation assay (14C-thymidine incorporation) on L1210 leukemia cells. The class given is cell-based. Conditions: read-out: Proliferation test IC50. As for the experimental part:
(§1) The cytostatic activity of the compounds described in this text was determined on L1210 mouse leukemia cells. Specifically, the following test systems were used:
In this method, the extent to which the cells can incorporate radioactive DNA precursors (for example ^14 C-labeled thymidine) in vitro is determined after incubation of the cells with various concentrations of the test substance. Untreated L1210 cells are subjected to the same test conditions and serve as the control. The method is briefly described below:
L1210 cells in the exponential phase of growth (5×10^3 /ml in RPMI 1640) are incubated in a microtiter plate with various concentrations of the test substance for 72 hours (37° C., 5% CO2, 95% relative humidity). The controls comprise cells which are merely incubated with fresh medium. All determinations are carried out in quadruplicate. After 65 hours, 50 μl of ^14 C-thymidine (1.5 μCi/ml) are added in order to radiolabel the DNA in the cells. After incubation for 7 hours, the cells are filtered off with suction, the DNA is precipitated with 5% strength trichloroacetic acid and is then washed consecutively with water and methanol.
After drying at 50° C. and addition of 5 ml of scintillation liquid, the radioactivity incorporated in the DNA is measured.
The results are reported as the ratio of the scintillation count after incubation with the test substance as a percentage of the untreated control. The dose-activity curve is derived from the figures thus measured, and the IC50, i.e. the concentration which decreases the incorporation of radioactive thymidine by 50% compared with the control under the test conditions, is determined graphically. The IC50 figures for the compounds described in this text are summarized and compared with adriamycin (ADM) in Table 1.

For assay [2], the system named is L1210 leukemia cells. Briefly: Formation of colonies of L1210 leukemia cells in soft agar. The class given is cell-based. Particulars: Mus musculus. As for the experimental part: as §1
(b) Formation of colonies of L1210 leukemia cells in soft agar
This method is used to detect an effect of the test substance on the growth characteristics of the cells over several generations (with the cell cycle period being 10-12 hours, about 14 consecutive generations are observed in the 7-day test period).
In this test, substances having cytostatic effects bring about a reduction in the number of colonies found compared with an untreated control. Specifically, the test is carried out as follows:
500 leukemia cells per plate are incubated with various concentrations of the test substance at 37° C. for 1 hour. The cells are then washed twice with McCoy 5a medium and, after addition of 0.3% agar, are finally poured into Petri dishes. Controls are merely incubated with fresh medium. In some cases, in place of incubation for 1 hour, various concentrations of the test substance are mixed into the upper agar layer in order thus to achieve continuous exposure of the cells throughout the incubation time. After the agar has solidified, the plates are incubated in an incubator at 37° C. for 7 days (5% CO2, 95% relative humidity). Then the number of resulting colonies having a diameter of 60μ is counted. The results are reported as the number of colonies in the treated agar plates as a percentage of the untreated control. The IC50 is determined from the dose-activity curve thus obtained and serves as a measure of the action of the substance. The results for the compounds described in this text are summarized and compared with adriamycin in Table 1.

The mark [3] stands for this setting: 72 hours incubation, L1210 cells, 14C-thymidine incorporation.
[4] abbreviates: 168 h, 7 days incubation (continuous exposure), soft agar, L1210, read-out: Colony formation test IC50, 7 days incubation.
[5] abbreviates: 1 hour incubation, then washed, soft agar 7 days, L1210, read-out: Colony formation test IC50, 1 hour incubation.
[6] abbreviates: L1210, 168 h, read-out: Colony formation test IC50, 7 days incubation.
Setting [7] is: L1210, read-out: Colony formation test IC50, 1 hour incubation.

Take `CCC1(O)CC(OC2CC(N(C)C)C(OC3CC(O)C(OC4CCC(=O)C(C)O4)C(C)O3)C(C)O2)c2c(O)c3c(c(O)c2C1OC1CC(N(C)C)C(OC2CCC(OC4CCC(O)C(C)O4)C(C)O2)C(C)O1)C(=O)c1cccc(O)c1C3=O` (stereo not shown) [Cytorhodin B]: the IC50 in assay [1] (setting [3]) turned out to be 2.8 ng/mL (≈ 2.39 nM); in assay [2] (setting [4]), 3.4 ng/mL (≈ 2.9 nM); in assay [2] (setting [5]), 1.2 ng/mL (≈ 1.02 nM).
In the same order, the values of `CCC1(O)CC(OC2CC(N(C)C)C(OC3CCC(OC4C=CC(=O)C(C)O4)C(C)O3)C(C)O2)c2c(O)c3c(c(O)c2C1OC1CC(N(C)C)C(OC2CCC(OC4CCC(O)C(C)O4)C(C)O2)C(C)O1)C(=O)c1cccc(O)c1C3=O` (stereo not shown) [Cytorhodin V] are 2.9 ng/mL (≈ 2.51 nM), 0.27 ng/mL (≈ 0.234 nM) and 2 ng/mL (≈ 1.73 nM).
In the same order, the values of `COc1cccc2c1C(=O)c1c(O)c3c(c(O)c1C2=O)C[C@@](O)(C(=O)CO)C[C@@H]3O[C@H]1C[C@H](N)[C@H](O)[C@H](C)O1` [ADM, adriamycin, reference compound] are 6 ng/mL (≈ 11 nM), 22 ng/mL (≈ 40.5 nM) and 44 ng/mL (≈ 81 nM).
Take `CCC1(O)CCc2c(O)c3c(c(O)c2C1OC1CC(N(C)C)C(OC2CC(O)C(O)C(C)O2)C(C)O1)C(=O)c1cccc(O)c1C3=O` (stereo not shown) [Cytorhodin M]: the IC50 in assay [1] (setting [3]) turned out to be 280 ng/mL (≈ 426 nM); in assay [2] (setting [4]) it was 160 ng/mL (≈ 243 nM); in assay [2] (setting [5]), 390 ng/mL (≈ 593 nM).
On to `CCC1(O)CC(OC2CC(N(C)C)C(OC3CC4OC5CC(=O)C(C)OC5OC4C(C)O3)C(C)O2)c2c(O)c3c(c(O)c2C1OC1CC(N(C)C)C(OC2CCC(OC4C=CC(=O)C(C)O4)C(C)O2)C(C)O1)C(=O)c1cccc(O)c1C3=O` (stereo not shown) [Cytorhodin D], for which the IC50 came to 0.28 ng/mL (≈ 0.24 nM) in assay [1] (L1210, 72 h); 3.7 ng/mL (≈ 3.18 nM) in assay [2] (setting [6]); 2.8 ng/mL (≈ 2.4 nM) in assay [2] (setting [7]).
Turning to `CCC1(O)CC(OC2CCC(OC3CCC(OC4CCC(O)C(C)O4)C(C)O3)C(C)O2)c2c(O)c3c(c(O)c2C1C(=O)OC)C(=O)c1cccc(O)c1C3=O` (stereo not shown) [Cytorhodin J], the IC50 in assay [1] (setting [3]) stood at 4400 ng/mL (≈ 5710 nM).
As to `CCC1(O)CCc2c(O)c3c(c(O)c2C1OC1CC(N(C)C)C(OC2CC(O)C(OC4CCC(O)C(C)O4)C(C)O2)C(C)O1)C(=O)c1cccc(O)c1C3=O` (stereo not shown) [Cytorhodin K], the IC50 is 3.7 ng/mL (≈ 4.79 nM) in assay [1] (setting [3]), 3 ng/mL (≈ 3.89 nM) in assay [2] (setting [4]) and 31 ng/mL (≈ 40.2 nM) in assay [2] (setting [5]).
Turning to `CCC1(O)CCc2c(O)c3c(c(O)c2C1OC1CC(N(C)C)C(OC2CCC(O)C(C)O2)C(C)O1)C(=O)c1cccc(O)c1C3=O` (stereo not shown) [Cytorhodin L], the IC50 turned out to be 300 ng/mL (≈ 467 nM) in assay [1] (setting [3]), 210 ng/mL (≈ 327 nM) in assay [2] (setting [4]) and 1750 ng/mL (≈ 2730 nM) in assay [2] (setting [5]).
Turning to `CCC1(O)CC(OC2CC(N(C)C)C(OC3CCC(OC4CCC(O)C(C)O4)C(C)O3)C(C)O2)c2c(O)c3c(c(O)c2C1OC1CC(N(C)C)C(OC2CCC(OC4CCC(O)C(C)O4)C(C)O2)C(C)O1)C(=O)c1cccc(O)c1C3=O` (stereo not shown) [Cytorhodin A], the figures for the IC50 in assay [1] (setting [3]), in assay [2] (setting [4]) and in assay [2] (setting [5]) were 1.1 ng/mL (≈ 0.95 nM), 3 ng/mL (≈ 2.59 nM) and 1.3 ng/mL (≈ 1.12 nM), respectively.
In the same order, the values of `CCC1(O)CC(OC2CC(N(C)C)C(OC3CCC(OC4C=CC(=O)C(C)O4)C(C)O3)C(C)O2)c2c(O)c3c(c(O)c2C1OC1CC(N(C)C)C(OC2CCC(OC4C=CC(=O)C(C)O4)C(C)O2)C(C)O1)C(=O)c1cccc(O)c1C3=O` (stereo not shown) [Cytorhodin F] are 2.4 ng/mL (≈ 2.09 nM), 28 ng/mL (≈ 24.4 nM) and 42 ng/mL (≈ 36.5 nM).
Consider `CCC1(O)CC(OC2CC(N(C)C)C(OC3CC4OC5CC(=O)C(C)OC5OC4C(C)O3)C(C)O2)c2c(O)c3c(c(O)c2C1OC1CC(N(C)C)C(OC2CC4OC5CC(=O)C(C)OC5OC4C(C)O2)C(C)O1)C(=O)c1cccc(O)c1C3=O` (stereo not shown) [Cytorhodin C], for which the IC50 in assay [1] (L1210, 72 h) is 0.55 ng/mL (≈ 0.466 nM); in assay [2] (setting [6]), 0.15 ng/mL (≈ 0.127 nM); in assay [2] (setting [7]) it was 3.4 ng/mL (≈ 2.88 nM).
Take `CCC1(O)CCc2c(O)c3c(c(O)c2C1OC1CC(N(C)C)C(OC2CCC(OC4CCC(O)C(C)O4)C(C)O2)C(C)O1)C(=O)c1cccc(O)c1C3=O` (stereo not shown) [Cytorhodin E]: the IC50 in assay [1] (setting [3]) turned out to be 25 ng/mL (≈ 33.1 nM); in assay [2] (setting [4]) it was 1.4 ng/mL (≈ 1.85 nM); in assay [2] (setting [5]), 28 ng/mL (≈ 37 nM).
With `CCC1(O)CC(OC2CC(N(C)C)C(OC3CC(O)C(OC4CCC(=O)C(C)O4)C(C)O3)C(C)O2)c2c(O)c3c(c(O)c2C1OC1CC(N(C)C)C(OC2CCC(OC4C=CC(=O)C(C)O4)C(C)O2)C(C)O1)C(=O)c1cccc(O)c1C3=O` (stereo not shown) [Cytorhodin P], the IC50 is 2.6 ng/mL (≈ 2.23 nM) in assay [1] (setting [3]), 0.32 ng/mL (≈ 0.274 nM) in assay [2] (setting [4]) and 2.8 ng/mL (≈ 2.4 nM) in assay [2] (setting [5]).
